Reference: ChEMBL document CHEMBL1144092, “5-Oxonoraporphines from Mitrephora cf. maingayi” (1999)
Values after ≈ are worked out from the molar mass of the structure shown. Active and inactive are the calls of the source. No cut-off for these calls is given here.

Legend:
P388 = assay: Cytotoxicity against mouse P388 cells; format: functional; conditions: P388, read-out: ED50
Aedes aegypti = assay: Larvicidal activity against Aedes aegypti larvae; format: functional

SMILES	EC50 (P388) [µg/mL]	Activity (Aedes aegypti)	LC50 (Aedes aegypti) [µg/mL]
COc1c(O)c2c3c(c1OC)-c1ccccc1C[C@H]3NC(=O)C2	> 30	inactive	
COc1c2c3c(c(OC)c1OC)-c1ccccc1C[C@H]3NC(=O)C2	> 30	inactive	
COc1c(OC)c(OC)c2c3c(cc4ccccc42)NC(=O)C(=O)c13 [OUREGIDIONE]			10000 (≈ 29.6 mM)
